Structures can show the parent of a compound that is named as a salt.
What follows are compounds tested against T1, human vasopressin V1a receptor subtype (Homo sapiens, UniProt P37288) (assay: Vasopressin binding in Chinese Hamster Ovary cell membranes expressing human vasopressin V1a subtype receptors). Conditions: 100 nM, CHO cell membranes, [3H]Manning ligand, values without parentheses.
T1 construct: host or cells: CHO cells (pZeoSV vector for the Thibonnier line)
T1 sequence (P37288 whole entry): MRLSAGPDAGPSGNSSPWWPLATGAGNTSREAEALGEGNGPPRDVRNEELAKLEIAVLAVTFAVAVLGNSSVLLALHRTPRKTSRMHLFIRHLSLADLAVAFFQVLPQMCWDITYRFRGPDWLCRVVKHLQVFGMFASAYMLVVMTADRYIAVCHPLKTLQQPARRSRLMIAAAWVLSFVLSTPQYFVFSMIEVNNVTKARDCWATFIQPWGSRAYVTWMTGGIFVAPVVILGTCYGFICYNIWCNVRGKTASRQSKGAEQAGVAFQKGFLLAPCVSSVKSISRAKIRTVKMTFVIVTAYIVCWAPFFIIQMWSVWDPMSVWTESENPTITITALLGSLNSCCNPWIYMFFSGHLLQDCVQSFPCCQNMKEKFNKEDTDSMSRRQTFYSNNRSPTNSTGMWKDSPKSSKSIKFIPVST
Procedure, shortened: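 Membranes from CHO cells expressing human V1a receptor were incubated with [3H]Manning ligand (added as 20 μL of 8 nM) in pH 7.4 Tris buffer with MgCl2, BSA and protease inhibitors, 60 min at room temperature. Bound radioactivity was counted after filtration; values are percent inhibition at a stated concentration or IC50.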
For `COc1cccc(-c2ccc(C(=O)N3Cc4ccc(C(=O)NCCCN(C)C)n4Cc4ccccc43)cc2OC)c1` [Example 82, 10-[(2,3′-Dimethoxy[1,1′-biphenyl]-4-yl)carbonyl]-N-[3-(dimethylamino)propyl]-10,11-dihydro-5H-pyrrolo[2,1-c][1,4]benzodiazepine-3-carboxamide], the inhibition at 0.1 µM was 37%. Work on `COc1cccc(-c2ccc(C(=O)N3Cc4ccc(C(=O)N(C)CCN(C)C)n4Cc4ccccc43)cc2OC)c1` [Example 95, 10-[(2,3′-Dimethoxy[1,1′-biphenyl]-4-yl)carbonyl]-N-[2-(dimethylamino)ethyl]-N-methyl-10,11-dihydro-5H-pyrrolo[2,1-c][1,4]benzodiazepine-3-carboxamide] yielded an inhibition at 0.1 µM of 68%. Work on `COc1ccccc1-c1ccc(C(=O)N2Cc3ccc(C(=O)N(C)CCN(C)C)n3Cc3ccccc32)cc1C` [Example 88, N-[2-(Dimethylamino)ethyl]-10-[(2′-methoxy-2-methyl[1,1′-biphenyl]-4-yl)carbonyl]-N-methyl-10,11-dihydro-5H-pyrrolo[2,1-c][1,4]benzodiazepine-3-carboxamide] yielded an inhibition at 0.1 µM of 44%. `COc1ccccc1-c1ccc(C(=O)N2Cc3ccc(C(=O)N(C)CCN(C)C)n3Cc3ccccc32)cc1OC` [Example 94, 10-[(2,2′-Dimethoxy[1,1′-biphenyl]-4-yl)carbonyl]-N-[2-(dimethylamino)ethyl]-N-methyl-10,11-dihydro-5H-pyrrolo[2,1-c][1,4]benzodiazepine-3-carboxamide] showed an inhibition at 0.1 µM of 28%. For `COc1cc(C(=O)N2Cc3ccc(C(=O)N(C)CCCN(C)C)n3Cc3ccccc32)ccc1-c1ccccc1C` [Example 105, N-[3-(Dimethylamino)propyl]-10-[(2-methoxy-2′-methyl[1,1′-biphenyl]-4-yl)carbonyl]-N-methyl-10,11-dihydro-5H-pyrrolo[2,1-c][1,4]benzodiazepine-3-carboxamide], the inhibition at 0.1 µM was 74%. `COc1cc(C(=O)N2Cc3ccc(C(=O)N(C)CCCN(C)C)n3Cc3ccccc32)ccc1-c1cccc2ccccc12` [Example 106, N-[3-(Dimethylamino)propyl]-10-[3-methoxy-4-(1-naphthyl)benzoyl]-N-methyl-10,11-dihydro-5H-pyrrolo[2,1-c][1,4]benzodiazepine-3-carboxamide] showed an inhibition at 0.1 µM of 22%. Work on `Cc1ccccc1-c1ccc(C(=O)N2Cc3ccc(C(=O)N(C)CCN(C)C)n3Cc3ccccc32)cc1` [Example 91, N-[2-(Dimethylamino)ethyl]-N-methyl-10-[(2′-methyl[1,1′-biphenyl]-4-yl)carbonyl]-10,11-dihydro-5H-pyrrolo[2,1-c][1,4]benzodiazepine-3-carboxamide] yielded an inhibition at 0.1 µM of 90%. With `COc1ccccc1-c1ccc(C(=O)N2Cc3ccc(C(=O)N(C)CCN(C)C)n3Cc3ccccc32)cc1` [Example 90, N-[2-(Dimethylamino)ethyl]-10-[(2′-methoxy[1,1′-biphenyl]-4-yl)carbonyl]-N-methyl-10,11-dihydro-5H-pyrrolo[2,1-c][1,4]benzodiazepine-3-carboxamide] the inhibition at 0.1 µM was 63%. `COc1cc(C(=O)N2Cc3ccc(C(=O)N(C)CCN(C)C)n3Cc3ccccc32)ccc1-c1cccc2ccccc12` [Example 93, N-[2-(Dimethylamino)ethyl]-10-[3-methoxy-4-(1-naphthyl)benzoyl]-N-methyl-10,11-dihydro-5H-pyrrolo[2,1-c][1,4]benzodiazepine-3-carboxamide] was tested, and the inhibition at 0.1 µM was 29%.

Same assay, conditions: CHO cell membranes, [3H]Manning ligand, values in parentheses
Work on `Cc1cc(C(=O)N2Cc3ccc(C(=O)N4CCNCC4)n3Cc3ccccc32)ccc1-c1ccccc1C(F)(F)F` [Example 7, 10,11-Dihydro-10-[[2-methyl-2′-trifluoromethyl-[1,1′-biphenyl]-4-yl]carbonyl]-3-(1-piperazinylcarbonyl)-5H-pyrrolo[2,1-c][1,4]benzodiazepine hydrochloride salt] yielded an IC50 of 2.48 µM. `Cc1cc(C(=O)N2Cc3ccc(C(=O)N4CCC[C@H]4CN4CCCC4)n3Cc3ccccc32)ccc1-c1ccccc1C(F)(F)F` [Example 258, (10-{[2-Methyl-2′-(trifluoromethyl)[1,1′-biphenyl]-4-yl]carbonyl}-10,11-dihydro-5H-pyrrolo[2,1-c][1,4]benzodiazepin-3-yl)[(2S)-2-(1-pyrrolidinylmethyl)pyrrolidinyl]methanone] was tested, and the IC50 was 0.913 µM. `Cc1cc(C(=O)N2Cc3ccc(C(=O)N4CC[C@@H](N(C)C)C4)n3Cc3ccccc32)ccc1-c1ccccc1C(F)(F)F` [Example 271, [(3R)-3-(Dimethylamino)pyrrolidinyl](10-{[2-methyl-2′-(trifluoromethyl)[1,1′-biphenyl]-4-yl]carbonyl}-10,11-dihydro-5H-pyrrolo[2,1-c][1,4]benzodiazepin-3-yl)methanone] showed an IC50 of 0.983 µM. `COc1ccccc1-c1ccc(C(=O)N2Cc3ccc(C(=O)N4CCN(C)CC4)n3Cc3ccccc32)cc1` [Example 48, {10-[(2′-Methoxy[1,1′-biphenyl]-4-yl)carbonyl]-10,11-dihydro-5H-pyrrolo[2,1-c][1,4]benzodiazepin-3-yl}(4-methyl-1-piperazinyl)methanone] showed an IC50 of 0.484 µM. With `COc1cc(C(=O)N2Cc3ccc(C(=O)N4CCC[C@H]4CN4CCCC4)n3Cc3ccccc32)ccc1-c1ccccc1C(F)(F)F` [Example 20, {[10-(2-Methoxy)-2′-trifluoromethyl-[1,1′-biphenyl]-4-yl]carbonyl}-[(2S)-[(2-pyrrolidin-1-yl)methyl]pyrrolidin-1-yl]-10,11-dihydro-5H-pyrrolo[2,1-c][1,4]benzodiazepin-3-yl-methanone] the IC50 was 0.717 µM. In the case of `COc1ccccc1-c1ccc(C(=O)N2Cc3ccc(C(=O)N4CCN(CCN5CCOCC5)CC4)n3Cc3ccccc32)cc1C` [Example 206, {10-[(2′-Methoxy-2-methyl[1,1′-biphenyl]-4-yl)carbonyl]-10,11-dihydro-5H-pyrrolo[2,1-c][1,4]benzodiazepin-3-yl}{4-[2-(4-morpholinyl)ethyl]-1-piperazinyl}methanone], the IC50 is reported as 0.317 µM. In the case of `O=C(c1ccc(-c2cccc3ccccc23)nc1)N1Cc2cccn2Cc2ccccc21` [Example 28, [6-(Naphthalen-1-yl)-pyridin-3-yl]-[10,11-dihydro-5H-pyrrolo[2,1-c][1,4]benzodiazepin-10-yl]methanone], the IC50 is reported as 0.0666 µM. Compound `C=CCN1CCN(C(=O)c2ccc3n2Cc2ccccc2N(C(=O)c2cc(Cl)c(-c4ccccc4C)cc2OC)C3)CC1` [Example 219, (4-Allyl-1-piperazinyl){10-[(6-chloro-3-methoxy-2′-methyl[1,1′-biphenyl]-4-yl)carbonyl]-10,11-dihydro-5H-pyrrolo[2,1-c][1,4]benzodiazepin-3-yl}methanone] has an IC50 of 1.81 µM. For `COc1cccc(-c2cc(OC)c(C(=O)N3Cc4ccc(C(=O)N(C)CCN(C)C)n4Cc4ccccc43)cc2Cl)c1` [Example 87, 10-[(6-Chloro-3,3′-dimethoxy[1,1′-biphenyl]-4-yl)carbonyl]-N-[2-(dimethylamino)ethyl]-N-methyl-10,11-dihydro-5H-pyrrolo[2,1-c][1,4]benzodiazepine-3-carboxamide], the IC50 was 0.349 µM. `COc1ccccc1-c1ccc(C(=O)N2Cc3ccc(C(=O)N4CCN(CCN5CCOCC5)CC4)n3Cc3ccccc32)cc1` [Example 207, {10-[(2′-Methoxy[1,1′-biphenyl]-4-yl)carbonyl]-10,11-dihydro-5H-pyrrolo[2,1-c][1,4]benzodiazepin-3-yl}{4-[2-(4-morpholinyl)ethyl]-1-piperazinyl}methanone] was tested, and the IC50 was 0.488 µM. For `COc1cc(-c2ccccc2C)c(Cl)cc1C(=O)N1Cc2ccc(C(=O)N3CCCN(C)CC3)n2Cc2ccccc21` [Example 60, {10-[(6-Chloro-3-methoxy-2′-methyl[1,1′-biphenyl]-4-yl)carbonyl]-10,11-dihydro-5H-pyrrolo[2,1-c][1,4]benzodiazepin-3-yl}(4-methyl-1,4-diazepan-1-yl)methanone], the IC50 was 0.681 µM. Work on `Cc1cc(C(=O)N2Cc3ccc(C(=O)N(C)CCN(C)C)n3Cc3ccccc32)ccc1-c1ccccc1C(F)(F)F` [Example 85, N-[2-(Dimethylamino)ethyl]-N-methyl-10-{[2-methyl-2′-(trifluoromethyl)[1,1′-biphenyl]-4-yl]carbonyl}-10,11-dihydro-5H-pyrrolo[2,1-c][1,4]benzodiazepine-3-carboxamide] yielded an IC50 of 0.788 µM. With `O=C(c1ccc(-c2cccc3ccccc23)cc1Cl)N1Cc2cccn2Cc2ccccc21` [Example 24, [2-Chloro-4-(naphthalen-1-yl)phenyl][10,11-dihydro-5H-pyrrolo[2,1-c][1,4]benzodiazepin-10-yl]methanone] the IC50 was 0.0225 µM. Compound `COc1cccc(-c2ccc(C(=O)N3Cc4ccc(C(=O)N5CC[C@@H](N(C)C)C5)n4Cc4ccccc43)cc2C)c1` [Example 278, [(3R)-3-(Dimethylamino)pyrrolidinyl]{10-[(3′-methoxy-2-methyl[1,1′-biphenyl]-4-yl)carbonyl]-10,11-dihydro-5H-pyrrolo[2,1-c][1,4]benzodiazepin-3-yl}methanone] has an IC50 of 0.303 µM. `COc1cc(-c2ccccc2C)ccc1C(=O)N1Cc2ccc(C(=O)N(C)CCCN(C)C)n2Cc2ccccc21` [Example 11, N-Methyl-N-[3-(dimethylamino)propyl]-10-[(3-methoxy-2′-methyl[1,1′-biphenyl]-4-yl)carbonyl]-10,11-dihydro-5H-pyrrolo[2,1-c][1,4]benzodiazepine-3-carboxamide] showed an IC50 of 0.0704 µM. `COc1cc(-c2ccccc2Cl)c(Cl)cc1C(=O)N1Cc2ccc(C(=O)N(C)C3CCN(C)CC3)n2Cc2ccccc21` [Example 43, 10-[(2′-Chloro-6-chloro-3-methoxy-[1,1′-biphenyl]-4-yl)carbonyl]-N-methyl-N-(1-methylpiperidin-4-yl)-10,11-dihydro-5H-pyrrolo[2,1-c][1,4]benzodiazepine-3-carboxamide] showed an IC50 of 0.312 µM. In the case of `COc1ccccc1-c1ccc(C(=O)N2Cc3ccc(C(=O)N4CCN(CCCN(C)C)CC4)n3Cc3ccccc32)cc1` [Example 246, {4-[3-(Dimethylamino)propyl]-1-piperazinyl}{10-[(2′-methoxy[1,1′-biphenyl]-4-yl)carbonyl]-10,11-dihydro-5H-pyrrolo[2,1-c][1,4]benzodiazepin-3-yl}methanone], the IC50 is reported as 0.373 µM.
